# Counter-ions that a name gives are not always drawn.
# Assays:
# Type in all cases: in vivo
# [1] = tested on: Rice plants (indica cultivar ‘JAYA’); assay: Test K: vigor, height and panicle length of rice crop outdoors, Gujarat; conditions: for crop vigor (visual rating, 0 to 200% scale, untreated = 100%): 32 days after application, Nilaparvata lugens level moderate; for average height of rice plants / average panicle length of rice plants: 45 days after application; for average height of rice plants: untreated 0.78 m; for average panicle length of rice plants: untreated 22.4 cm
# Method: (§1) To evaluate the effect of application of a compound of the invention on the vigor of rice crops grown under outdoor conditions, Tests 1 through 0 were conducted. “a.i.” refers to the amount of active ingredient applied.
# Rice plants (indica cultivar ‘JAYA’) were transplanted into flooded 6 m×5 m test plots of clay loam soil under shade cloth in the State of Gujarat, India during the hot season before monsoon arrival, and grown using local agronomic practices. Accordingly, after 44 days from transplanting, all rice plants in this test were sprayed with an aqueous mixture containing 30 g a.i./ha of cypermethrin and 100 g a.i./ha of picoxystrobin. After 53 days from transplanting, aqueous mixtures of Compound 3 were applied to the foliage of the rice plants at 6.25, 12.5, 25 or 50 g a.i./ha in a spray volume of 500 L/ha using a backpack sprayer. Plots of unsprayed rice plants were used as controls. Each treatment and control was replicated three times, and the plots were arranged in a randomized complete block design. At the time of application of Compound 3, the pest level of rice brown planthopper (Nilaparvata lugens) was moderate, but still above the level considered economically significant.
# At 45 days after application, the height and panicle length of the rice plants were measured. Plant height was determined by measuring length from vertically extended longest leaf tip to soil surface. Panicle length was measured similarly. The average height of rice plants treated with 6.25, 12.5, 25 and 50 g a.i./ha of Compound 3 was 0.94, 0.92, 0.92 and 0.99 m, respectively, compared to 0.78 m for untreated control plants. The average panicle length of rice plants treated with 6.25, 12.5, 25 and 50 g a.i./ha of Compound 3 was 23.8, 23.7, 24.9 and 24.6 cm, respectively, compared to 22.4 cm for untreated control plants.
# [2] = tested on: cotton melon aphid (Aphis gossypii); assay: Test C: control of cotton melon aphid on cotton plant, contact and/or systemic
# Description: For evaluating control of cotton melon aphid (Aphis gossypii) through contact and/or systemic means, the test unit consisted of a small open container with a 6-7-day-old cotton plant inside. This was pre-infested with 30-40 insects on a piece of leaf according to the cut-leaf method described for Test B, and the soil of the test unit was covered with a layer of sand.
# Test compounds were formulated and sprayed at 250 and/or 50 ppm as described for Test B. The applications were replicated three times. After spraying, the test units were maintained in a growth chamber and then visually rated as described for […].
# [3] = tested on: Rice plants (indica cultivar ‘IR 64’); assay: Test L: vigor and harvest yield of rice crop outdoors, Dhamtari; conditions: for harvest yield: controls 2630 kg/ha
# Method: as §1
# Rice plants (indica cultivar ‘IR 64’) were transplanted into flooded 6 m×5 m test plots of clay loam soil in the Dhamtari district, State of Chhattisgarh, India, in the early spring season, and grown using local agronomic practices. After 79 days, in the hot season before monsoon arrival, aqueous mixtures containing 30 g a.i./ha of indoxacarb in form of STEWARD® Insecticide, 20 g a.i./ha of chlorantraniliprole, and 6.25, 12.5, 25 or 50 g a.i./ha of Compound 3 were applied to the foliage of the rice plants at in a spray volume of 500 L/ha using a backpack sprayer. Plots of control rice plants were sprayed with an aqueous mixture containing 30 g a.i./ha of indoxacarb in form of STEWARD® Insecticide and 20 g a.i./ha of chlorantraniliprole (i.e. no Compound 3). Each treatment and control was replicated three times, and the plots were arranged in a randomized complete block design. At the time of application of Compound 3, the pest level of rice brown planthopper (Nilaparvata lugens) was high, i.e. above the level considered economically significant.
# Even though the pest level was high, at the time of treatment the plants had already reached full height and produced panicles, so the treatment with Compound 3 was too late to noticeably increase crop vigor rated by general external appearance (e.g., plant height, number of panicles). Nevertheless, the treatments substantially benefited crop vigor as measured by harvest yield. Harvest yields from the crops treated with 6.25, 12.5, 25 and 50 g a.i./ha of Compound 3 were 4630, 4830, 4730 and 4930 kg/ha, respectively, compared to 2630 kg/ha from the untreated controls.
# [4] = tested on: Rice plants (indica cultivar ‘MTU1010’); assay: Test I: vigor of rice crop outdoors, foliar application, West Godavri; conditions: 20 days after application, Nilaparvata lugens level high
# Method: as §1
# Rice plants (indica cultivar ‘MTU1010’) were transplanted into flooded 5 m×3 m test plots of clay loam soil in the delta region of the West Godavri district, Andhra Pradesh, India, during the rainy season, and grown using local agronomic practices. After 47 days, aqueous mixtures of Compound 3 were applied to the foliage of the rice plants at 12.5, 25 or 50 g a.i./ha in a spray volume of 387 L/ha using a backpack sprayer. Plots of unsprayed rice plants were used as controls. Each treatment and control was replicated three times, and the plots were arranged in a randomized complete block design. At the time of application of Compound 3, the pest level of rice brown planthopper (Nilaparvata lugens) was high, i.e. much above the level considered economically significant.
# The crop vigor of the rice plants in each plot was visually rated based on general external appearance (e.g., plant height) 20 days after application on a 0 to 200% scale, wherein the plants in untreated control plots were considered to represent 100%, and the results for the three replicates for each treatment were averaged. More than 100% means the plants in a treated plot were more vigorous than those in the untreated control plot, while less than 100% means the plants in the treated pot were less vigorous.
compound,measurement,setting,value
"O=c1c(-c2cccc(C(F)(F)F)c2)c([O-])[n+](Cc2cncnc2)c2ccccn12 [Compound 3, 2-hydroxy-4-oxo-1-(5-pyrimidinylmethyl)-3-[3-(trifluoromethyl)phenyl]-4H-pyrido[1,2-a]pyrimidinium inner salt]","crop vigor (visual rating, 0 to 200% scale, untreated = 100%)",[1]; 6.25 g a.i./ha foliar,115%
same,average height of rice plants,[1]; 6.25 g a.i./ha,0.94 m
same,average panicle length of rice plants,[1]; 6.25 g a.i./ha,23.8 cm
same,"crop vigor (visual rating, 0 to 200% scale, untreated = 100%)",[1]; 12.5 g a.i./ha foliar,113%
same,average height of rice plants,[1]; 12.5 g a.i./ha,0.92 m
same,average panicle length of rice plants,[1]; 12.5 g a.i./ha,23.7 cm
same,"crop vigor (visual rating, 0 to 200% scale, untreated = 100%)",[1]; 25 g a.i./ha foliar,122%
same,average height of rice plants,[1]; 25 g a.i./ha,0.92 m
same,average panicle length of rice plants,[1]; 25 g a.i./ha,24.9 cm
same,"crop vigor (visual rating, 0 to 200% scale, untreated = 100%)",[1]; 50 g a.i./ha foliar,115%
same,average height of rice plants,[1]; 50 g a.i./ha,0.99 m
same,average panicle length of rice plants,[1]; 50 g a.i./ha,24.6 cm
same,mortality at 50 ppm,[2]; sprayed at 50 ppm,≥ 80%
same,mortality at 250 ppm,[2]; sprayed at 250 ppm,≥ 80%
same,harvest yield,[3]; 6.25 g a.i./ha with 30 g a.i./ha indoxacarb and 20 g a.i./ha chlorantraniliprole,4630 kg/ha
same,harvest yield,[3]; 12.5 g a.i./ha with 30 g a.i./ha indoxacarb and 20 g a.i./ha chlorantraniliprole,4830 kg/ha
same,harvest yield,[3]; 25 g a.i./ha with 30 g a.i./ha indoxacarb and 20 g a.i./ha chlorantraniliprole,4730 kg/ha
same,harvest yield,[3]; 50 g a.i./ha with 30 g a.i./ha indoxacarb and 20 g a.i./ha chlorantraniliprole,4930 kg/ha
same,"crop vigor (visual rating, 0 to 200% scale, control = 100%)","[3]; all application rates (6.25, 12.5, 25 or 50 g a.i./ha) with 30 g a.i./ha indoxacarb and 20 g a.i./ha chlorantraniliprole, 21 days after application, Nilaparvata lugens level high",100%
same,"crop vigor (visual rating, 0 to 200% scale, untreated = 100%)",[4]; 12.5 g a.i./ha foliar,140%
same,"crop vigor (visual rating, 0 to 200% scale, untreated = 100%)",[4]; 25 g a.i./ha foliar,143%
same,"crop vigor (visual rating, 0 to 200% scale, untreated = 100%)",[4]; 50 g a.i./ha foliar,143%

# Reference: patent US8895738B2, “Mesoionic pyrido [1, 2-A] pyrimidine pesticides” (E I du Pont de Nemours and Company, priority 2010, dated 2014)
